The results in this text go back to patent EP1889615A2, “Formulations for oral administration with a health promoting effect on the osteoarticular and muscleskeleton apparatus” (ROTTAPHARM S.P.A., priority 2006, dated 2008).

One test concerns IL-1. As to the kind of experiment: Human blood: LPS stimulated production (expression) of IL-1. It counts as cell-based. As to the method:
200 µl samples have been stimulated with 1 µg/ml of LPS for 24 hours at 37°C [Hartel et al. 2004], in the presence of the test products. The cytokines released into the plasma have been analysed using a multiple system for cytokines (Bio-Plex, Bio-Rad Laboratories, Milan, Italy) allowing the simultaneous determination of IL-1, TNFα and IL-10.

A further test relates to IL-10. Put plainly: Human blood: LPS stimulated production (expression) of IL-10. It counts as cell-based. As to the method: Venous blood has been collected from healthy volunteers and treated with 0.38% Na citrate in order to prevent coagulation. 200 µl samples have been stimulated with 1 µg/ml of LPS for 24 hours at 37°C [Hartel et al. 2004], in the presence of the test products. The cytokines released into the plasma have been analysed using a multiple system for cytokines (Bio-Plex, Bio-Rad Laboratories, Milan, Italy) allowing the simultaneous determination of IL-1, TNFα and IL-10.

The mark [1] stands for this setting: 30 µM (Man, ASS as mangostin; ASS 30 = Man 30 + CGS 300).

Molecules are shown by their SMILES.

Consider `N[C@H]1C(O)O[C@H](CO)[C@@H](O)[C@@H]1O.N[C@H]1C(O)O[C@H](CO)[C@@H](O)[C@@H]1O.O=S(=O)(O)O.[Cl-].[Cl-].[Na+].[Na+]` (some centres unmarked) [CGS, Crystalline Glucosamine Sulphate], for which the IL-1 was found to be 4.65 ng/mL with IL-1 (setting [1]), 4.72 ng/mL with IL-1 (100 µM) and 4.69 ng/mL with IL-1 (300 µM). Moreover, the “%Diff. vs control” value in the test with IL-1 (IL-1, 30 µM (Man, ASS as mangostin; ASS 30 = Man 30 + CGS 300)) is recorded as 2.1%; in the test with IL-1 (IL-1, 100 µM) it was 3.6%; in the test on IL-1 (IL-1, 300 µM), 3.1%; in the test on IL-10 (IL-10 (increase positive), 30 µM (Man, ASS as mangostin; ASS 30 = Man 30 + CGS 300)) it was -3.5%; in the test on IL-10 (IL-10, 100 µM), 1.6%; with IL-10 (IL-10, 300 µM) it was 6.3%. In the test with IL-1 (IL-1, up to a concentration of 300 µM), the inhibitory activity result is recorded as “no appreciable inhibitory activity”. Further, the values for the IL-10 with IL-10 (setting [1]), with IL-10 (100 µM) and in the test on IL-10 (300 µM) were 0.25 ng/mL, 0.26 ng/mL and 0.27 ng/mL, respectively. Besides, the “stimulatory or inhibitory activity” value with IL-10 (IL-10, concentrations tested 30, 100 and 300 µM) is given as “no significant stimulatory or inhibitory activity”.
